Patent US8633183B2 (priority 2010, dated 2014)

biological target: PI3Kalpha (Homo sapiens (Human), UniProt P42336); conditions: read-out: IC50 PI3K
Sequence (P42336 whole entry, looked up): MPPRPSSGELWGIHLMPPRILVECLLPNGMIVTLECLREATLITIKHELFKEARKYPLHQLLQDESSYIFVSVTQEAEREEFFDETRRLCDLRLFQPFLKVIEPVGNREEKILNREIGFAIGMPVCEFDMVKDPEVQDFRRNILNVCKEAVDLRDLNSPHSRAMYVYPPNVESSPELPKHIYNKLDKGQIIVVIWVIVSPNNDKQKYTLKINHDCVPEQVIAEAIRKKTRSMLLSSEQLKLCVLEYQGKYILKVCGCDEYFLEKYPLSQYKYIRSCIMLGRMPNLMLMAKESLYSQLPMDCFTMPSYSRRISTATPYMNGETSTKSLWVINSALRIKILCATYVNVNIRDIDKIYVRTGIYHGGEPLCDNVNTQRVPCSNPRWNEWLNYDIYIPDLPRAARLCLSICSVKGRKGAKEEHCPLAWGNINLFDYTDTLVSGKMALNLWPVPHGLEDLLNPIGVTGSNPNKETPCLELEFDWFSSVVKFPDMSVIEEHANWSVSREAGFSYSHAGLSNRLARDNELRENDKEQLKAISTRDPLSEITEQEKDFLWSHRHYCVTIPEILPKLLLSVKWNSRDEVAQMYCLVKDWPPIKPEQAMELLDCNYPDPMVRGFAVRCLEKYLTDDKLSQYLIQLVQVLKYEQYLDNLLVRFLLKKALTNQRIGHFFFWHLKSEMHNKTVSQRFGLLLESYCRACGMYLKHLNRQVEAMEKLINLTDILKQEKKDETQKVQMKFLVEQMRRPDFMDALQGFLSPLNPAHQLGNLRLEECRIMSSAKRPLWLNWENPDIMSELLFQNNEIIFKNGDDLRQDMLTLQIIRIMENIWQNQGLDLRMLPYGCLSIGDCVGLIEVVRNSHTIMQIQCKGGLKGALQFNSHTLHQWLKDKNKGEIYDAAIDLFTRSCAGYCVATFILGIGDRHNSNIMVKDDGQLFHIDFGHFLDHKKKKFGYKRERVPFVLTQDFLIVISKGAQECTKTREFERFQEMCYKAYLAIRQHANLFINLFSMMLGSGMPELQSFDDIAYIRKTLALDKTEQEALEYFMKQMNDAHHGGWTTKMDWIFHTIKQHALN

Compound	IC50 [nM]
CCc1ncnc(-c2ccc(C(=O)N3CCC(C4CCN(C)CC4)CC3)c(Cl)c2)c1C#Cc1ccc(N)nc1 [Example D-139]	374
CCc1ncnc(-c2ccc(C(=O)NC3CCCN(C)C3)c(Cl)c2)c1C#Cc1ccc(N)nc1 [Example D-140]	510
CCc1ncnc(-c2ccc(C(=O)N3CCC(OC)CC3)c(Cl)c2)c1C#Cc1ccc(N)nc1 [Example D-142]	94
CCc1ncnc(-c2ccc(C(=O)N3CCC(C)(O)CC3)c(Cl)c2)c1C#Cc1ccc(N)nc1 [Example D-143]	77
CCc1ncnc(-c2ccc(C(=O)N3CC[C@H](O)C3)c(Cl)c2)c1C#Cc1ccc(N)nc1 [Example D-145]	58
CCc1ncnc(-c2ccc(C(=O)N3CC[C@@H](O)C3)c(Cl)c2)c1C#Cc1ccc(N)nc1 [Example D-146]	66
CCc1ncnc(-c2ccc(C(=O)N3CCCC(O)C3)c(Cl)c2)c1C#Cc1ccc(N)nc1 [Example D-147]	65
CCc1ncnc(-c2ccc(C(=O)N3CCNCC3)c(Cl)c2)c1C#Cc1ccc(N)nc1 [Example D-152]	164
CCc1ncnc(-c2ccc(C(=O)N(C)O)c(Cl)c2)c1C#Cc1ccc(N)nc1 [Example D-153]	67
CCc1ncnc(-c2ccc(C(=O)N3CCCN(C)CC3)c(Cl)c2)c1C#Cc1ccc(N)nc1 [Example D-154]	405
CCc1ncnc(-c2ccc(C(=O)N3CCN(c4ccncc4)CC3)c(Cl)c2)c1C#Cc1ccc(N)nc1 [Example D-155]	209
CCc1ncnc(-c2ccc(C(=O)N3CCCOCC3)c(Cl)c2)c1C#Cc1ccc(N)nc1 [Example D-157]	65
CCc1ncnc(-c2ccc(C(=O)NCC3(C)COC3)c(Cl)c2)c1C#Cc1ccc(N)nc1 [Example D-159]	66
CCc1ncnc(-c2ccc(C(=O)N3CCN(Cc4ccccc4)CC3)c(Cl)c2)c1C#Cc1ccc(N)nc1 [Example D-160]	658
Cc1ncnc(-c2ccc(C(=O)N3CCN(c4ccccc4)CC3)cc2)c1C#Cc1ccc(N)nc1 [Example D-188]	67
COCCN1CCN(C(=O)c2ccc(-c3ncnc(C)c3C#Cc3ccc(N)nc3)cc2)CC1 [Example D-189]	118
CCCCN1CCN(C(=O)c2ccc(-c3ncnc(C)c3C#Cc3ccc(N)nc3)cc2)CC1 [Example D-190]	153
Cc1ncnc(-c2ccc(C(=O)N3CCN4CCCCC4C3)cc2)c1C#Cc1ccc(N)nc1 [Example D-191]	81
Cc1ncnc(-c2ccc(C(=O)N3CCN(C4CCS(=O)(=O)C4)CC3)cc2)c1C#Cc1ccc(N)nc1 [Example D-192]	134
Cc1ncnc(-c2ccc(C(=O)N3CCN(C4CCOCC4)CC3)cc2)c1C#Cc1ccc(N)nc1 [Example D-193]	65
Cc1ncnc(-c2ccc(C(=O)N3CCN(CCO)CC3)cc2)c1C#Cc1ccc(N)nc1 [Example D-194]	106
CCc1ncnc(-c2ccc(C(=O)NCC(O)CN(C)C)c(F)c2)c1C#Cc1ccc(N)nc1 [Example D-196]	292
CCc1ncnc(-c2ccc(C(=O)NC3CCCN(C)C3)c(F)c2)c1C#Cc1ccc(N)nc1 [Example D-197]	280
CCc1ncnc(-c2ccc(C(=O)NC3CC(N4CCN(C)CC4)C3)c(F)c2)c1C#Cc1ccc(N)nc1 [Example D-198]	203
CCc1ncnc(-c2ccc(C(=O)NC3CCN(C)C3)c(F)c2)c1C#Cc1ccc(N)nc1 [Example D-199]	347

Compound	IC50 [nM]
CCc1ncnc(-c2ccc(C(=O)NC[C@H]3CCCN3CC)c(F)c2)c1C#Cc1ccc(N)nc1 [Example D-200]	566
CCc1ncnc(-c2ccc(C(=O)NC3CCN(CCOC)CC3)c(F)c2)c1C#Cc1ccc(N)nc1 [Example D-201]	134
CCc1ncnc(-c2ccc(C(=O)NC3CC(C)(C)N(C)C(C)(C)C3)c(F)c2)c1C#Cc1ccc(N)nc1 [Example D-202]	413
CCc1ncnc(-c2ccc(C(=O)N3CC[C@H](O)C3)c(F)c2)c1C#Cc1ccc(N)nc1 [Example D-203]	57
CCc1ncnc(-c2ccc(C(=O)N3CC[C@@H](O)C3)c(F)c2)c1C#Cc1ccc(N)nc1 [Example D-204]	69
CCc1ncnc(-c2ccc(C(=O)NC3CCCN(C4CCN(C)CC4)C3)c(F)c2)c1C#Cc1ccc(N)nc1 [Example D-205]	335
CCc1ncnc(-c2ccc(C(=O)NC3CC(N4CCCCC4)C3)c(F)c2)c1C#Cc1ccc(N)nc1 [Example D-207]	436
CCc1ncnc(-c2ccc(C(=O)NC3CC(N4CCC(N5CCCC5)CC4)C3)c(F)c2)c1C#Cc1ccc(N)nc1 [Example D-208]	308
CCc1ncnc(-c2ccc(C(=O)NC3CCN(C4CCN(C)CC4)C3)c(F)c2)c1C#Cc1ccc(N)nc1 [Example D-210]	370
CCc1ncnc(-c2ccc(C(=O)NCCN3CCCC3=O)c(F)c2)c1C#Cc1ccc(N)nc1 [Example D-211]	46
CCc1ncnc(-c2ccc(C(=O)NC3CCS(=O)(=O)C3)c(F)c2)c1C#Cc1ccc(N)nc1 [Example D-212]	79
CCc1ncnc(-c2ccc(C(=O)NC3CC(C)(C)NC(C)(C)C3)c(F)c2)c1C#Cc1ccc(N)nc1 [Example D-213]	272
CCc1ncnc(-c2ccc(C(=O)NCC3(C)COC3)c(F)c2)c1C#Cc1ccc(N)nc1 [Example D-214]	72
CCc1ncnc(-c2ccc(C(=O)N3CCC(N(C)C)C3)c(F)c2)c1C#Cc1ccc(N)nc1 [Example D-215]	227
CCc1ncnc(-c2ccc(C(=O)N(C)C3CCS(=O)(=O)C3)c(F)c2)c1C#Cc1ccc(N)nc1 [Example D-216]	59
CCc1ncnc(-c2ccc(C(=O)NCCN3CCOCC3)c(F)c2)c1C#Cc1ccc(N)nc1 [Example D-217]	44
CCc1ncnc(-c2ccc(C(=O)N3CCCO3)c(F)c2)c1C#Cc1ccc(N)nc1 [Example D-218]	80
CCc1ncnc(-c2ccc(C(=O)N3CCCCO3)c(F)c2)c1C#Cc1ccc(N)nc1 [Example D-219]	105
CCc1ncnc(-c2ccc(C(=O)N3CCCO3)cc2)c1C#Cc1ccc(N)nc1 [Example D-222]	42
CCc1ncnc(-c2ccc(C(=O)N3CCCCO3)cc2)c1C#Cc1ccc(N)nc1 [Example D-223]	77
CCc1ncnc(-c2ccc(C(=O)N3CC(O)CO3)cc2)c1C#Cc1ccc(N)nc1 [Example D-224]	39
CCc1ncnc(-c2ccc(C(=O)N(C)OC)cc2)c1C#Cc1ccc(N)nc1 [Example D-225]	66
Cc1ncnc(-c2ccc(C(=O)N3CCCO3)c(F)c2)c1C#Cc1ccc(N)nc1 [Example D-226]	48
Cc1ncnc(-c2ccc(C(=O)N3CCCCO3)c(F)c2)c1C#Cc1ccc(N)nc1 [Example D-227]	47
Cc1ncnc(-c2ccc(C(=O)N3CC(O)CO3)c(F)c2)c1C#Cc1ccc(N)nc1 [Example D-228]	52

Compound	IC50 [nM]
CON(C)C(=O)c1ccc(-c2ncnc(C)c2C#Cc2ccc(N)nc2)cc1F [Example D-229]	65
Cc1ncnc(-c2ccc(C(=O)N3CCCO3)c(Cl)c2)c1C#Cc1ccc(N)nc1 [Example D-230]	37
Cc1ncnc(-c2ccc(C(=O)N3CCCCO3)c(Cl)c2)c1C#Cc1ccc(N)nc1 [Example D-231]	46
Cc1ncnc(-c2ccc(C(=O)N3CC(O)CO3)c(Cl)c2)c1C#Cc1ccc(N)nc1 [Example D-232]	38
CCc1ncnc(-c2ccc(C(=O)N3CCC(N4CCOCC4)C3)c(F)c2)c1C#Cc1ccc(N)nc1 [Example D-234]	156
CCc1ncnc(-c2ccc(C(=O)N3CCC(N4CCCC4)C3)c(F)c2)c1C#Cc1ccc(N)nc1 [Example D-235]	226
CCc1ncnc(-c2ccc(C(=O)N3CC[C@@H](N(C)C)C3)c(F)c2)c1C#Cc1ccc(N)nc1 [Example D-236]	269
CCc1ncnc(-c2ccc(C(=O)N3CC[C@H](N(C)C)C3)c(F)c2)c1C#Cc1ccc(N)nc1 [Example D-237]	161
CCc1ncnc(-c2ccc(C(=O)N3CCC(N(CC)CC)C3)c(F)c2)c1C#Cc1ccc(N)nc1 [Example D-238]	382
CCc1ncnc(-c2ccc(C(=O)N3CCOCC3)c(F)c2)c1C#Cc1ccc(N)nc1 [Example D-239]	55
CCc1ncnc(-c2ccc(C(=O)N3CCN(C)CC3)nc2)c1C#Cc1ccc(N)nc1 [Example D-240]	214
CCc1ncnc(-c2cc(F)c(C(=O)N3CCN(C)CC3)c(F)c2)c1C#Cc1ccc(N)nc1 [Example E-1]	132
CCc1ncnc(-c2cc(F)c(C(=O)N3CCN(C(C)C)CC3)c(F)c2)c1C#Cc1ccc(N)nc1 [Example E-2]	237
CCc1ncnc(-c2cc(F)c(C(=O)N3CCN(CC)CC3)c(F)c2)c1C#Cc1ccc(N)nc1 [Example E-3]	276
CCCN1CCN(C(=O)c2c(F)cc(-c3ncnc(CC)c3C#Cc3ccc(N)nc3)cc2F)CC1 [Example E-4]	133
CCc1ncnc(-c2cc(F)c(C(=O)N3CCN(CCOC)CC3)c(F)c2)c1C#Cc1ccc(N)nc1 [Example E-5]	78.8
CCc1ncnc(-c2cc(F)c(C(=O)N3CCN(C4CCOCC4)CC3)c(F)c2)c1C#Cc1ccc(N)nc1 [Example E-6]	124
CCc1ncnc(-c2cc(F)c(C(=O)N3CCN(CC4CC4)CC3)c(F)c2)c1C#Cc1ccc(N)nc1 [Example E-7]	189
CCc1ncnc(-c2cc(F)c(C(=O)N3CCN(C(C)(C)C)CC3)c(F)c2)c1C#Cc1ccc(N)nc1 [Example E-8]	1320
CCc1ncnc(-c2cc(F)c(C(=O)N3CCC(N4CCOCC4)CC3)c(F)c2)c1C#Cc1ccc(N)nc1 [Example E-9]	199
CCc1ncnc(-c2cc(F)c(C(=O)N(C)C)c(F)c2)c1C#Cc1ccc(N)nc1 [Example E-10]	49.1
CCc1ncnc(-c2cc(F)c(C(=O)N3CCCC3)c(F)c2)c1C#Cc1ccc(N)nc1 [Example E-11]	125
CCc1ncnc(-c2cc(F)c(C(=O)NC)c(F)c2)c1C#Cc1ccc(N)nc1 [Example E-12]	65
CCc1ncnc(-c2cc(F)c(C(=O)NCCN3CCOCC3)c(F)c2)c1C#Cc1ccc(N)nc1 [Example E-13]	154
CCc1ncnc(-c2cc(F)c(C(=O)N3CCNCC3)c(F)c2)c1C#Cc1ccc(N)nc1 [Example E-14]	353
